In patent US7521454B2 (Dainippon Sumitomo Pharma Co., Ltd., priority 2001, dated 2009):
Values after ≈ are worked out from the molar mass of the structure shown. Read-outs that look alike come from different tables or passages of the source.

Key:
[1] = system: IL-4 production; experiment: Inhibitory activity against Th2 cytokine produced from sensitized spleen cells: IL-4; assay type: cell-based, mouse; settings: OVA-sensitized BALB/c spleen cells, 3 days
Protocol: (§1) A 7-week-old BALB/c mouse was immunized intraperitoneally with aluminum hydroxide gel (4 mg, 100 μl) having 10 μg of ovalbumin adsorbed thereon, and it was subjected to additional immunization with the same agent 14 days later. Seven days thereafter, spleen was taken out, and suspended in RPMI-1640 comprising inactivated fetal bovine serum (10%), 2-mercaptoethanol ([…]), penicillin G (100 U/ml), and streptomycin (100 μg/ml). Thus, a splenic cell suspension was prepared. Ovalbumin (0.5 mg/ml) and a test compound were added to a splenic cell suspension (5×10^6 cell/200 μl/well), and the resultant was cultured at 37° C. in the presence of 5% CO2 for 3 days. The cytokine level in the culture supernatant was quantified by ELISA. IFN-γ and IL-4 were assayed using a kit available from Amersham, and IL-5 was assayed using a kit available from Endogen.

[2] = system: Balb/c male mouse; experiment: Interferon-inducing activity in mouse (in vivo), serum interferon titer after oral dosing
[3] = system: human peripheral blood mononuclear cells (PBMC); experiment: Interferon-inducing activity in human peripheral blood mononuclear cells (PBMC), IFN-α ELISA; assay type: cell-based; settings: 24 h;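 note: IFN-α in pg/ml with a 1.25 pg/ml detection limit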
Protocol: Peripheral bloods were sampled from 5 healthy volunteers using a syringe containing heparin, and peripheral blood mononuclear cells (PBMC) were prepared by density gradient centrifugation utilizing the Lymphoprep™ (NYCOMED PHARMA AS). PBMCs were washed twice in serum-free RPMI 1640 medium and adjusted at 1×10^6 cells/ml in RPMI 1640 medium comprising 10% fetal bovine serum. The product was cultured in the presence of a test compound dissolved in dimethyl sulfoxide (final concentration: 0.1%) in an incubator in the presence of 5% CO^2 at 37° C. for 24 hours. As a control, 0.1% dimethyl sulfoxide containing no test compound was used. The culture supernatant was aseptically collected by filtration. Thereafter, the supernatant was cryopreserved at −20° C. or lower until it was subjected to the assay for IFN-inducing activity. Human IFN-α in the culture supernatant was quantified using a highly sensitive ELISA system (Amersham).

[4] = system: IL-5 production; experiment: Inhibitory activity against Th2 cytokine produced from sensitized spleen cells: IL-5; assay type: cell-based, mouse; settings: OVA-sensitized BALB/c spleen cells, 3 days
Protocol: as §1

[5] = system: mouse spleen cell; experiment: cells; assay type: cell-based
[6] = Gastrointestinal absorption in rat (drug level in blood by HPLC); assay type: in vivo; settings: SD male rat
Protocol: A test compound was suspended in an aqueous solution of 0.5% carboxymethylcellulose, and the resulting suspension was orally administered to an SD male rat. Blood was sampled with the elapse of time, and the level of the drug in blood was assayed by HPLC.

[7] = Solubility in citric acid/disodium phosphate buffers; settings: citric acid/disodium phosphate buffer, thermodynamic from solid
Protocol: 5.53% citric acid (monohydrate) and 1.75% disodium phosphate (anhydrous) were mixed together to prepare buffers (pH 2.5, 5.5, 7.4). A compound was added thereto, the mixture was stirred in a vortex mixer and subjected to ultrasonication for 30 minutes. Thereafter, the resultant was stirred in a vortex mixer again and then centrifuged at 15,000 rpm for 20 minutes. The levels of the compounds in the supernatants were then quantified by HPLC.

[8] = system: male cynomolgus monkeys; settings: po, 10 mg/kg, 4 h
[9] = system: rat model of eosinophil leukocytic infiltration; experiment: Rat model of eosinophil leukocytic infiltration (OVA, bronchoalveolar lavage); assay type: in vivo; settings: 0.01 mg/kg intratracheal, 2.5 hours before induction, lavage 24 hours after
Protocol: A rat was immunized intraperitoneally with 1 ml of a solution containing 1 mg of ovalbumin (OVA) and 100 mg of Al(OH)3 on day 0 and day 7. On day 14, a 1% OVA solution was sprayed for 15 minutes using a ultrasonic nebulizer to induce reactions. A test compound was administered intratracheally 2.5 hours before the induction. Bronchoalveolar lavage was performed 24 hours after the induction, and eosinocytes in the wash was stained with Hinkelman to count the number of stained cells. Sensi.−/Challe.+, CMC-Na, and Fluticasone were used as controls. FIG. 1 and the following table show the results.

[10] = system: male cynomolgus monkeys; experiment: Interferon-inducing activity in cynomolgus monkey (in vivo), serum interferon titer and vomition; settings: 10 mg/kg oral

Molecule: 1-(2-hydroxy-2-methylpropyl)-2-methoxyethyl-1H-imidazo[4,5-c]quinoline-4-amine [Comparative Example 2, reference compound]
- Inhibitory activity against IL-4 production ([1]; concentration 0.1 nM): 90 % of control
- Inhibitory activity against IL-4 production ([1]; concentration 1 nM): 24 % of control
- Inhibitory activity against IL-4 production ([1]; concentration 10 nM): 1 % of control
- Inhibitory activity against IL-4 production ([1]; concentration 100 nM): <1 % of control
- Interferon-inducing activity ([2]; dosage 0.1 mg/kg oral, serum 2 h after dosing, Balb/c mouse): 1638 ± 246 U/ml
- Interferon-inducing activity ([2]; dosage 0.3 mg/kg oral, serum 2 h after dosing, Balb/c mouse): 1961 ± 950 U/ml
- Interferon-inducing activity (human IFN-α in culture supernatant) ([3]; concentration 0.3 nM): — ((−) indicates a detection limit (1.25 pg/ml) or lower)
- Interferon-inducing activity (human IFN-α in culture supernatant) ([3]; concentration 1 nM): — ((−) indicates a detection limit (1.25 pg/ml) or lower)
- Interferon-inducing activity (human IFN-α in culture supernatant) ([3]; concentration 3 nM): 6 ± 5 pg/mL
- Inhibitory activity against IL-5 production ([4]; concentration 0.1 nM): 106 % of control
- Inhibitory activity against IL-5 production ([4]; concentration 1 nM): 73 % of control
- Inhibitory activity against IL-5 production ([4]; concentration 10 nM): 18 % of control
- Inhibitory activity against IL-5 production ([4]; concentration 100 nM): 10 % of control
- Interferon-inducing activity: Minimum effective concentration [5]: 3 nM
- Cmax ([6]; dose 3 mg/kg oral): 19 ng/mL
- Tmax ([6]; dose 3 mg/kg oral): 1 h
- Cmax ([6]; dose 10 mg/kg oral): 15 ng/mL
- Tmax ([6]; dose 10 mg/kg oral): 0.5 h

Molecule: CCCCNc1nc(N)c2nc(O)n(Cc3ccc(OC)nc3)c2n1 [Example 19, 2-Butylamino-8-hydroxy-9-(6-methoxy-3-pyridylmethyl)adenine]
- activity at 0.001 µM ([1]; Mus musculus, 72 h, concentration 1 nM, read-out: Inhibitory activity against IL-4 production): 32%
- activity at 0.01 µM ([1]; Mus musculus, 72 h, concentration 10 nM, read-out: Inhibitory activity against IL-4 production): < 1%
- activity at 0.1 µM ([1]; Mus musculus, 72 h, concentration 100 nM, read-out: Inhibitory activity against IL-4 production): < 1%
- Interferon-inducing activity ([2]; po, 0.01 mg/kg, 2 h): 14 ± 5 U/ml
- Interferon-inducing activity ([2]; po, 0.03 mg/kg, 2 h): 199 ± 84 U/ml
- Interferon-inducing activity ([2]; po, 0.1 mg/kg, 2 h): 383 ± 122 U/ml
- Interferon-inducing activity ([2]; po, 0.3 mg/kg, 2 h): 601 ± 187 U/ml
- Interferon-inducing activity (human IFN-α in culture supernatant) ([3]; concentration 1 nM): 5 ± 1 pg/mL
- Interferon-inducing activity (human IFN-α in culture supernatant) ([3]; concentration 3 nM): 12 ± 11 pg/mL
- Interferon-inducing activity (human IFN-α in culture supernatant) ([3]; concentration 10 nM): 48 ± 34 pg/mL
- Interferon-inducing activity (human IFN-α in culture supernatant) ([3]; concentration 30 nM): 60 ± 33 pg/mL
- activity at 0.001 µM ([4]; Mus musculus, 72 h, concentration 1 nM, read-out: Inhibitory activity against IL-5 production): 83%
- activity at 0.01 µM ([4]; Mus musculus, 72 h, concentration 10 nM, read-out: Inhibitory activity against IL-5 production): 16%
- activity at 0.1 µM ([4]; Mus musculus, 72 h, concentration 100 nM, read-out: Inhibitory activity against IL-5 production): 13%
- minimal effective concentration ([5]; Mus musculus, 24 h, read-out: Interferon-inducing activity: Minimum effective concentration): 0.003 µM
- solubility at 30 min ([7]; pH 2.5, aqueous buffer): 130 µg/mL (≈ 379 µM)
- solubility at 30 min ([7]; pH 5.5, aqueous buffer): 2 µg/mL (≈ 5.82 µM)
- solubility at 30 min ([7]; pH 7.4, aqueous buffer): 2 µg/mL (≈ 5.82 µM)
- interferon titer in blood serum (average±SE) [8]: 12,173±6619 U/ml
- Cmax ([6]; blood, dose 3 mg/kg oral, read-out: Cmax): 188 ng/mL
- Tmax ([6]; blood, dose 3 mg/kg oral, read-out: Tmax): 4 h

Molecule: C[C@@H]1C[C@H]2[C@@H]3C[C@H](F)C4=CC(=O)C=C[C@]4(C)[C@@]3(F)[C@@H](O)C[C@]2(C)[C@@]1(O)C(=O)SCF [Fluticasone, reference compound]
- eosinocytes in bronchoalveolar lavage, Average [9]: 300.07 ×10^4 cells

Molecule: CCCCOc1nc(N)c2nc(Br)n(Cc3ccc(Cl)nc3)c2n1 [Reference Example 2, 8-Bromo-2-butoxy-9-(6-chloro-3-pyridylmethyl)adenine]
- vomition observed ([10]; cynomolgus monkeys): 4 out of 5 samples
- interferon titer in blood serum (average±SE) ([10]; four hours after the administration, five male cynomolgus monkeys): 18,305±5578 U/ml
